Source: patent US20180161459A1, “Methods of Screening for Drugs to Prevent Noise-Induced Hearing Loss” (Sound Pharmaceuticals Incorporated, priority 2015, published 2018)

Experiments:
human subjects [1] = assay: Safety and tolerability of orally delivered ebselen in the Phase 2 study; type: in vivo; details: oral 200, 400 or 600 mg twice daily for four days; CBC, Chemistry-20, Chest X-ray
Description: (§1) A study was performed to evaluate the safety and efficacy of an orally delivered candidate composition in human subjects. The candidate composition ebselen (aka. SPI-1005) was evaluated for efficacy using the methods disclosed herein. Ebselen or placebo was administered in a randomized double-blinded study to subjects, who were then exposed to a calibrated sound or noise challenge. Post-sound exposure pure tone audiometry was compared with baseline (i.e., immediately pre-sound exposure) testing to determine group mean level hearing threshold shift changes between treated and placebo groups. The single center, randomized, double-blinded, placebo-controlled study enrolled 83 subjects, all between the ages of 18 and 31. All enrolled subjects ranged from having slight hearing loss (less than or equal to 25 dB HL) to normal hearing.
Ebselen, or 2-phenyl-1,2-benzisoselenazol-3 (2H)-one, was selected as a candidate composition. […]
Side effects of the ebselen delivery were analyzed. Clinical signs and symptoms from physical exam were evaluated, such as shortness of breath, wheezing, coughing, hemoptysis, resting pulse oximetry, chest X-rays, and laboratory findings such as hematology, chemistry, and urinalysis. Exposure to ebselen was quantified from plasma by LC-MS/MS. […]

human subjects [2] = assay: Calibrated sound challenge: temporary threshold shift (TTS) by serial pure tone audiometry, randomized double-blinded placebo-controlled Phase 2 study; type: in vivo
Description: as §1
Each subject was instructed to avoid non-occupational sound exposure (e.g., concerts, firearms, fireworks, power tools) during the 24-hour period preceding baseline testing and throughout the duration of the study. Vital signs (i.e., heart rate, blood pressure, respirations, temperature) were within normal limits for each subject. Subjects had conventional audiologic assessments at baseline consisting of: (a) pure tone audiometry to confirm that subjects had symmetric hearing with air conduction thresholds no worse than 25 dB HL at frequencies between 0.25 to 8 kHz bilaterally, (b) no significant threshold asymmetry (i.e. greater than 15 dB) between any subject's ears at any tested frequency,(c) no significant air-bone gaps (i.e. greater than 10 dB). Bone conduction testing with masking as conducted at screening at 250, 500, 1000, 2000, or 4000 Hz if the air-conduction threshold was greater than 15 dB HL, and (d) Type A tympanograms bilaterally, defined as a range of −140 to +40 daPa based on the 90% range for adults. Subjects with pure tone audiometry hearing thresholds>25 dB HL at any tested frequency (250, 500, 1000, 2000, 3000, 4000, 6000, and 8000 Hz) for either ear were excluded from the study.
Ebselen, or 2-phenyl-1,2-benzisoselenazol-3 (2H)-one, was selected as a candidate composition. The ebselen formulation was a capsule containing 200 mg of ebselen and 150 mg of the excipients microcrystalline cellulose, sodium croscarmellose, and magnesium sterate. Each subject received ebselen at one of three dosages (either 200 mg, 400 mg, or 600 mg) or received a placebo, delivered orally twice daily for four days, beginning two days prior to exposure to a controlled sound and continuing on the day of and on the day following the exposure to the controlled sound. The study was randomized to assign each subject to a treatment or placebo group. All subjects took 3 capsules in the morning (AM) and 3 capsules in the evening (PM) (each capsule either contained 200 mg ebselen or placebo), ideally 12 hours apart.
On Day 3 of the ebselen treatment, subjects underwent audiometric testing immediately prior to sound-exposure to establish their baseline hearing levels. Subjects listened to a 100 dBA SPL sound exposure delivered via insert earphones from a Personal Music Player (PMP, specifically an iPod®) for 4 continuous hours. The sound exposure method was similar to that discussed in Le Prell, C. et al., Ear & Hearing 33:e44-e58, 2012, hereby incorporated by reference in its entirety. The music levels were measured using Bruel & Kjaer type 4157 artificial ear couplers. Subjects listened to sound from music playlists with a choice of rock or pop music. No changes in volume or duration of the sound exposure were permitted. At 15 minutes, 75 minutes, 135 minutes, 195 minutes, 24 hours, and 1 week after sound exposure, subjects were tested for pure tone audiometric thresholds. Serial pure tone audiometry determined the incidence (greater or equal to 10 dB HL), severity (dB HL) and duration (up to 1 week post sound exposure) of the TTS. Audiometric data was collected at 250, 500, 1000, 2000, 3000, 4000, 6000, and 8000 Hz. […]

In the case of `O=c1c2ccccc2[se]n1-c1ccccc1` [ebselen, 2-phenyl-1,2-benzisoselenazol-3 (2H)-one], the “Tolerability / drug-related adverse events” value (human subjects [1]) was “well-tolerated with no drug-related adverse events”, the “TTS at 4 kHz vs. placebo at later time points” value (human subjects [2]; 1.25, 2.25 and 3.25 hours post sound exposure, 400 mg dose group, ITT) was “significantly reduced” and the “TTS incidence (subjects with greater or equal to 10 dB HL shift in either ear)” value (human subjects [2]; 15 minutes post 100 dBA SPL 4 h sound exposure, oral twice daily for four days, 600 mg dose most effective, ITT, placebo 60%) was 20%. For the same molecule, the “TTS averaged across all tested frequencies, or mean across 3, 4, 6 kHz or 4, 6, 8 kHz” value (human subjects [2]; 15 minutes post sound exposure, 400 mg dose most effective, ITT) was “clinically relevant reductions”, the “TTS severity at 4 kHz” value (human subjects [2]; 15 minutes post sound exposure, oral twice daily for four days, 400 mg dose most effective, ITT, placebo 4.1) was 1.3 dB HL and the “Incidence of subjects that returned to baseline hearing within 24 hours” value (human subjects [2]; all ebselen treatment groups compared with placebo, FIG. 2) was “greater incidence of subjects that returned to baseline hearing within 24 hours”. For the same molecule, the TTS duration (human subjects [2]; oral twice daily for four days, placebo 24 hrs) was 1.3 h.
